# Results reported in publication PMC9775191, “A Subset Screen of the Compounds Australia Scaffold Library Identifies 7-Acylaminodibenzoxazepinones as Potent and Selective Hits for Anti-Giardia Drug Discovery” (Biomedicines, 2022).
# Tested on: G. duodenalis BRIS/91/HEPU/1279
# Assay: Primary Giardia screen at 10 µM (live-cell imaging, automated counting)
# Assay type: cell-based, Giardia duodenalis
# Settings: 24 h
# Description: Each compound was assessed in singlicate, at a final concentration of 10 μM (0.4 μL of a 5 mM stock; diluted to a final volume of 200 μL in culture medium; 0.2% DMSO). […] Plates were incubated in sealed chambers filled with 3% O2, 5% CO2 in N2 and growth was assessed at 24 and 48 h using live cell imaging and automated counting as previously described. Growth inhibition was calculated by subtracting media only background counts and determining percentage growth relative to vehicle (0.2% DMSO) controls. The reliability of these assays was assessed by calculating Z’ factors for each plate as previously described.
row,Structure (SMILES),Average % Inhibition 24h [%]
1,NC1=Nc2nc3ccccc3n2C(c2ccc(-c3ccc(F)cc3)o2)N1 (stereo not shown) [SN00776094],0.0
2,FC(F)Oc1ccc(-c2csc(Cc3nnc4n3CCCCC4)n2)cc1 [SN00776417],12.3
3,CCCNC(=O)N1CCN(c2nc3ccccc3n3cccc23)CC1 [SN00793136],3.9

# Same assay, conditions: 24 h, first singlicate assay
row,Structure (SMILES),% Inhibition n=1 24h [%]
1,NC1=Nc2nc3ccccc3n2C(c2ccc(-c3ccc(F)cc3)o2)N1 (stereo not shown) [SN00776094],0.0
2,FC(F)Oc1ccc(-c2csc(Cc3nnc4n3CCCCC4)n2)cc1 [SN00776417],22.0
3,CCCNC(=O)N1CCN(c2nc3ccccc3n3cccc23)CC1 [SN00793136],7.8

# Same assay, conditions: 24 h, re-assessment
row,Structure (SMILES),% Inhibition n=2 24h [%]
1,NC1=Nc2nc3ccccc3n2C(c2ccc(-c3ccc(F)cc3)o2)N1 (stereo not shown) [SN00776094],0.0
2,FC(F)Oc1ccc(-c2csc(Cc3nnc4n3CCCCC4)n2)cc1 [SN00776417],2.6
3,CCCNC(=O)N1CCN(c2nc3ccccc3n3cccc23)CC1 [SN00793136],0.0

# Same assay, conditions: 48 h
row,Structure (SMILES),Average % Inhibition 48h [%]
1,NC1=Nc2nc3ccccc3n2C(c2ccc(-c3ccc(F)cc3)o2)N1 (stereo not shown) [SN00776094],18.4
2,FC(F)Oc1ccc(-c2csc(Cc3nnc4n3CCCCC4)n2)cc1 [SN00776417],19.6
3,CCCNC(=O)N1CCN(c2nc3ccccc3n3cccc23)CC1 [SN00793136],22.4

# Same assay, conditions: 48 h, first singlicate assay
row,Structure (SMILES),% Inhibition n=1 48h [%]
1,O=C(Cn1c(-c2ncccn2)noc1=O)N1CCCCC1 [SN00781438],1.7
2,O=C(Cc1csc(Cc2ccccn2)n1)Nc1ccc2nc(N3CCOCC3)sc2c1 [SN00779496],2.9
3,COc1ccc(OC)c(CNC(=O)c2ccc3[nH]c4c(c3c2)CN(C(C)=O)CC4)c1 [SN00798195],0.0
4,O=C(NC(c1ccccc1)C1CC1)c1ccc2c(c1)S(=O)(=O)Nc1ncnn1-2 (stereo not shown) [SN00773273],0.0
5,CCOC(=O)CC(=O)Nc1ccc(-c2onc3c2CCc2cc(OC)ccc2-3)cc1 [SN00802675],5.3
6,CCc1nnsc1C(=O)N1CCCN(Cc2ccccc2F)CC1 [SN00782451],0.0
7,Cc1ccc(-n2nnc(-c3nc(-c4ccc5c(c4)OCO5)no3)c2N)cc1 [SN00787754],0.0
8,Cc1ccccc1-c1noc(Cn2c(-c3ccccn3)noc2=O)n1 [SN00781291],0.0
9,CN1CCCc2cc(C(=O)NCc3cccs3)sc21 [SN00799810],0.0
10,Cc1cc2n(n1)CCCN2CC(=O)N1CCN(c2cccc(Cl)c2)CC1 [SN00791744],5.3
11,O=C(Cc1csc(N2CCCNC2=O)n1)Nc1ccccc1OC(F)F [SN00781228],8.7
12,Cn1nc(C(=O)NCc2ccc3c(c2)OCO3)c2c1CCN(C(=O)C1CCCC1)C2 [SN00789838],7.0
13,COc1ccc(C(NC(=O)CN2CCN(Cc3n[nH]c(C)n3)CC2)C(C)C)cc1 (stereo not shown) [SN00782152],0.6
14,CCCNc1ncnc2c1cnn2-c1ccc(C)cc1 [SN00794411],0.0
15,O=C(c1ccc[nH]c1=S)N1CCCC(CN2CCN(c3ccccn3)CC2)C1 (stereo not shown) [SN00780166],0.0
16,CC(=O)Nc1ccc2c(c1)CN(C(=O)C1CCCCC1)C(C(=O)N1CCCCC1)C2 (stereo not shown) [SN00798930],8.7
17,CC(=O)c1ccc(NC(=O)C2CC(=O)N=C(N3CCN(Cc4ccc5c(c4)OCO5)CC3)N2)cc1 (stereo not shown) [SN00788633],6.8
18,O=S(=O)(c1ccc(F)cc1)N1CCN=C1N1CCCCC1 [SN00790442],15.7
19,CSc1ccc(CCNC(=O)c2ccc3c(c2)nc2n3CCOC2)cc1 [SN00792852],12.8
20,O=C(/C=C/c1cccc([N+](=O)[O-])c1)Nc1ccc2c(c1)nc1n2CCCCC1 [SN00770035],0.0
21,COc1ccc(NC(=O)C2CCn3c(nc4ccccc43)C2)cc1Cl (stereo not shown) [SN00789545],0.0
22,CCCNC(=O)c1cn(C)nc1S(=O)(=O)N1CCC(C)CC1 [SN00798692],3.5
23,Cc1ccc(C2c3cccn3-c3ccccc3CN2C(=O)c2cccnc2)cc1 (stereo not shown) [SN00795042],0.0
24,CN1CCC(Oc2ncccc2C(=O)N2CCOCC2)CC1 [SN00800013],15.5
25,NC1=Nc2nc3ccccc3n2C(c2ccc(-c3ccc(F)cc3)o2)N1 (stereo not shown) [SN00776094],31.0
26,O=C1CC(C(=O)N2CCN(S(=O)(=O)c3ccc(Br)cc3)CC2)c2ccc(F)cc2N1 (stereo not shown) [SN00779129],0.0

row,Structure (SMILES),% Inhibition n=1 48h [%]
1,O=C(c1c[nH]nc1-c1ccc(Cl)cc1)N1CCN(c2ccccc2)CC1 [SN00791700],26.6
2,Cc1ccc(Cl)cc1NC(=O)C1CC2CSCN2C12C(=O)Nc1ccccc12 (stereo not shown) [SN00789076],17.2
3,Cc1c(C(=O)NCCCN2CCOCC2)oc2c1-c1nn(Cc3ccc(Cl)cc3)cc1CC2 [SN00787421],1.0
4,CCCN(c1ccccc1C(=O)O)S(=O)(=O)c1ccc2[nH]c(=O)[nH]c2c1 [SN00783856],12.1
5,CC(C)CN1CC(C(=O)N2CCC(Nc3cccnn3)CC2)CC1=O (stereo not shown) [SN00774466],0.0
6,CCC(C)(NCc1ncc(-c2cccs2)o1)c1nccs1 (stereo not shown) [SN00783193],26.6
7,CCC1c2ccsc2CCN1C(=O)C1CCN(S(=O)(=O)c2ccc(Cl)c([N+](=O)[O-])c2)CC1 (stereo not shown) [SN00771236],27.8
8,c1cncc(-c2nc(Sc3nnnn3CC3CCCO3)c3ccccc3n2)c1 (stereo not shown) [SN00771230],11.8
9,CCOc1cc(C(=O)Nc2ccc(C3=CSC4=NCCCN34)cc2)ccc1OC(F)F [SN00775741],4.5
10,CCn1cc(CN2CCC(OCc3nc(C4CC4)no3)CC2)cn1 [SN00801138],0.0
11,COc1ccc(S(=O)(=O)N2CC=C(C(=O)NCc3ccc(C)cc3)CC2)cc1 [SN00785474],23.4
12,COc1ccc(-n2nnnc2C2(N3CCOCC3)CCCCC2)cc1 [SN00794159],0.0
13,CCc1ccc(CNC(=O)c2cc3ccncc3n2C)cc1 [SN00798182],20.1
14,O=C(Nc1cccc(C(F)(F)F)c1)c1cnn2c(C(F)(F)F)cc(-c3ccco3)nc12 [SN00784128],9.2
15,Cc1ccc(Cl)cc1-n1ncc2c(NCCO)ncnc21 [SN00794417],8.1
16,O=[N+]([O-])c1ccc(S(=O)(=O)N2CCCCCC2c2cccs2)cc1 (stereo not shown) [SN00793856],39.9
17,O=C(NCc1ccc(F)cc1)N1CCCCC1c1nc(-c2ccccc2)no1 (stereo not shown) [SN00772110],0.0
18,FC(F)Oc1ccc(-c2csc(Cc3nnc4n3CCCCC4)n2)cc1 [SN00776417],34.2
19,CNC(=O)N1C[C@@H](CN(C)C)[C@@H](C2CCN(CCC(C)C)CC2)C1 (relative stereo) [SN00801505],0.0
20,O=C1C(=O)N(Cc2coc(-c3ccc(Cl)cc3)n2)C(=O)N1Cc1ccccc1 [SN00777999],18.6
21,O=C(O)c1cccc(Nc2nc(Nc3ccccc3)nc(N3CCCC3)n2)c1 [SN00783666],0.3
22,COc1ccc(S(=O)(=O)N2CCN(Cc3ccc(C)cc3)c3ncccc32)cc1 [SN00790428],10.3
23,CN(CCc1ccccn1)C(=O)c1cc2nc(-c3ccc(Cl)cc3)cc(C(F)(F)F)n2n1 [SN00784121],0.0
24,Cc1ccc(C2=CC(c3ccccc3)n3nnnc3N2CC(=O)N2CCN(c3ccccc3)CC2)cc1 (stereo not shown) [SN00786799],34.8
25,COc1ccc(OCCn2c(NC(=O)c3ccc(OC)cc3)nc3ccccc32)cc1 [SN00783884],19.5
26,c1cnc(N2CCCN(c3nc4ccccc4o3)CC2)nc1 [SN00778442],32.5

row,Structure (SMILES),% Inhibition n=1 48h [%]
1,COc1cccc(Cn2nc3c(S(=O)(=O)N4CCOCC4)cccn3c2=O)c1 [SN00798018],4.9
2,Cc1ccc(NC(=O)c2cnc3c(c2)c(=O)n(C)c(=O)n3-c2ccccc2)cc1 [SN00799453],0.0
3,Cc1sc2ncn(CCN(C)C)c(=O)c2c1C(=O)Nc1ccc(S(N)(=O)=O)nc1 [SN00803001],26.5
4,CCc1ccc(-n2ccc(=O)c(-c3nc(-c4cccc(Cl)c4)no3)n2)cc1 [SN00798039],4.9
5,CCOCCn1c(N2CCCCC2)nc(C)cc1=O [SN00799709],33.8
6,Cc1nc2sccn2c1-c1nc(-c2cccc3ccccc23)cs1 [SN00776128],37.4
7,CC(C)CCNC(=O)C1CCCCN1S(=O)(=O)c1ccc(F)cc1 (stereo not shown) [SN00784282],5.5
8,Cc1cc(C(=O)N2CCCN(Cc3cnn(C)c3)CC2)on1 [SN00782463],0.0
9,CCCNC(=O)N1CCN(c2nc3ccccc3n3cccc23)CC1 [SN00793136],44.8
10,O=C(C1CC=CCC1)N1CCN(S(=O)(=O)c2c[nH]c3ncccc23)CC1 (stereo not shown) [SN00781077],7.5
11,Cc1nnc(-c2ccc3ccn(CC(=O)NC4CC4)c3c2)o1 [SN00798392],0.0
12,Cc1ccccc1C(=O)Nc1cnc(N2CCNCC2)c(C(=O)N(C)Cc2ccccc2)c1 [SN00795318],15.2
13,COc1ccc(N2CC(c3noc(-c4ccc(C(C)(C)C)cc4)n3)CC2=O)cc1 (stereo not shown) [SN00801793],0.0
14,Cc1ccc(N2CCCN(C(=O)CN(C)C3CC3)CC2)nn1 [SN00772050],11.9
15,COc1ccc(CCNC(=O)c2cc(-c3cccs3)on2)cc1OC [SN00784489],33.2
16,CN(C)C(=O)N1CCN(Cc2nc3c(cnn3C)c(=O)[nH]2)CC1 [SN00807792],0.0
17,COc1ccccc1CCC(=O)N1CCN(c2ncnc3[nH]cnc23)CC1 [SN00787062],0.0
18,Cc1ncccc1CNCC1CN(C2CC2)CCO1 (stereo not shown) [SN00783283],14.5
19,O=C(C1CCCN1C(=O)C1CCCCC1)N1CCCC(c2nc(-c3ccc(Cl)cc3)no2)C1 (stereo not shown) [SN00774977],0.0
20,Cc1sc2cc(C(=O)NC(C)(C)C)[nH]c2c1CN1CCOCC1 [SN00798503],2.4
21,CC1(C(=O)N2CCCC(CN3CCOCC3)C2)CC1(Cl)Cl (stereo not shown) [SN00782980],14.3
22,Cc1nnc(-c2cc(NS(=O)(=O)c3ccc(Cl)cc3)c(C)s2)o1 [SN00798629],2.8
23,CCN(c1ccc(-c2csc(Cc3nnc4n3CCCCC4)n2)cc1)S(C)(=O)=O [SN00776436],17.3
24,C=CCn1c(SCC(=O)N2CCCCC2)nc2scc(-c3ccco3)c2c1=O [SN00773666],5.6

# Same assay, conditions: 48 h, re-assessment
row,Structure (SMILES),% Inhibition n=2 48h [%]
1,NC1=Nc2nc3ccccc3n2C(c2ccc(-c3ccc(F)cc3)o2)N1 (stereo not shown) [SN00776094],5.8
2,FC(F)Oc1ccc(-c2csc(Cc3nnc4n3CCCCC4)n2)cc1 [SN00776417],5.0
3,CCCNC(=O)N1CCN(c2nc3ccccc3n3cccc23)CC1 [SN00793136],0.0
